Data published in US20200123127A1, “REMOVAL OF SENESCENCE-ASSOCIATED MACROPHAGES” (EVERON BIOSCIENCES, INC., priority 2016, published 2020).
Like-named read-outs stand apart in the source and are kept apart here.

Experiments:
[1] = system: p16(Ink4a) expression in SAMs; test: p16(Ink4a) promoter-dependent luciferase activity in alginate bead-elicited macrophages (SAMs) ex vivo; format: cell-based, mouse; details: for Modulation of p16(Ink4a): SAMs: SAMs from NDF alginate beads, dose-response testing; for IL-4-dependent increase in luciferase activity / p16(Ink4a) expression: IL-4 10 ng/mL, 72 hour
Description: FIG. 7. Immunomodulatory regulation of p16(Ink4a) and SAβG in macrophages. Peritoneal lavage cells elicited by alginate-encapsulated SCs from p16^Ink4a/Luc mice were treated ex vivo with immunomodulatory agents for 72 hours. A) p16 promoter-dependent luciferase activity (black bars) and […] activity (via 4-MUG hydrolysis) (gray bars) were measured following treatment with M1- and M2-polarizing stimuli: LPS at 1 ng/mL, IFN-γ at 10 ng/mL, LPS/IFN-γ co-treatment, Poly(I:C) at 10 μg/mL, IFN-α at 100 U/mL, IL-4 at 20 ng/mL, IL-13 at 10 ng/ml, and IL-4/IL-13 co-treatment. Results are shown as the mean±standard deviation for at least 3 independent experiments, with statistical significance between treated compared to non-treated samples depicted. B) Dose-dependent response of JAK1/2 inhibitor Ruxolitinib on luciferase activity in elicited macrophages in the presence (gray bars) or absence (black bars) of IL-4 (10 ng/mL) stimulation. Enzyme activities are expressed as the percent activity relative to non-treated (NT) controls per cell. Statistical significance between IL-4 stimulated and non-stimulated cells at each concentration of ruxolitinib is shown.
(§1) FIG. 8. Immunomodulatory regulation of p16(Ink4a) and SAβG in macrophages. Peritoneal lavage cells elicited by alginate-encapsulated SCs from p16^Ink4a/Luc mice were treated ex vivo with immunomodulatory agents for up to 72 hours. (A) mRNA expression of p16(Ink4a) and β-galactosidase (Glb1) in macrophages (relative to B2m expression) with or without LPS stimulation for 72 hours analyzed via qRT-PCR, normalized to non-treated controls. (B) Microphotograph of SAβG-stained adherence-selected macrophages with or without stimulation with LPS (1 ng/mL) for 72 hours (10× objective). (C&D) Kinetics of p16(Ink4a) promoter-dependent luciferase activity per cell with or without LPS stimulation (C) or IL-4 stimulation (D), normalized to activity from non-treated cells at time zero. Results are shown as the mean±standard deviation for at least 3 experiments. Statistical significance with respect to non-treated control at time zero is indicated. (E) Luciferase activity and (3-galactosidase activity (via 4-MUG hydrolysis) from proteose peptone-elicited lavage cells following stimulation with IL-4 (20 ng/mL) for 72 hours, normalized to non-treated controls. (F) Viability following 72 hour dose-response to JAK1/2 inhibitor Ruxolitinib in the presence or absence of IL-4 (10 ng/mL) stimulation, measured by CyQuant Direct DNA-based viability assay. Viability normalized to respective controls lacking Ruxolitinib. (G&H) Dose-response of STAT6 inhibitor AS1517499 against luciferase activity (G) and viability via CyQuant Direct assay (H) following 72 hour treatment in the presence and absence of IL-4 (10 ng/mL). Results normalized to respective controls (with or without IL-4) lacking STAT6 inhibitor. Statistical significance is calculated with respect to the difference between IL-4 stimulated and non-stimulated cells at each concentration of STAT6 inhibitor. (I) Relative luciferase activity per cell following repolarization with M1- and M2-inducing agents. Macrophages were left non-treated (NT) or treated with either LPS (1 ng/ml) or IL-4 (20 ng/ml) for 72 hours (days 1-3), as indicated. For each treatment set, samples were collected at 72 hours (no further treatment; days 4-6=x). Alternatively, cells were washed and placed in fresh medium (−), medium containing LPS (1 ng/mL) and IFN-γ (10 ng/mL), or medium containing IL-4 (20 ng/mL) and IL-13 (10 ng/mL) and incubated for an additional 72 hours prior to sample collection (as indicated for days 4-6). Luciferase activity is expressed as the percent activity per cell relative to non-treated (NT) controls after the first 72 hours.
Luciferase activity of cell lysates was accessed using Bright-Glo™ Luciferase Assay System (Promega; Madison, Wis.) according to manufacturer's instructions with minor modifications. […]

[2] = system: p16(Ink4a) in mLF and mVAT fibroblasts; test: Modulation of p16(Ink4a) in mouse lung and visceral adipose tissue-derived fibroblasts; format: cell-based; details: for Modulation of p16(Ink4a): mLF and mVAT Senescent: 20Gy irradiation for senescence induction; for Modulation of p16(Ink4a): mLF and mVAT Proliferating: without irradiation
Description: We next sought to determine whether immunomodulatory agents, and other small molecules, were capable of selectively modulating p16(Ink4a) expression in SAMs by comparing their effects on p16 expression in SAMs to that of mouse lung fibroblasts (mLF) and mouse visceral adipose tissue-derived fibroblasts (mVAT). […] Immunomodulatory agents cause little to no change in p16 expression in fibroblasts. For example, mouse fibroblasts are reported to respond to LPS and IL-4 (expressing TLR4 and IL-4R, respectively), yet these agents are unable to modulate p16 in fibroblasts.

[3] = system: chronologically aging mice; test: Survival and frailty index of chronologically aging mice; format: in vivo, mouse
Description: FIG. 11. OT-82 effects on survival and frailty index of old mice. (A) Male and female mice were treated with OT-82 or with vehicle alone as a negative control. Survival was measured over the course of six treatments.
FIG. 12. Effects of asenins TA-3899 and TA-4812 on survival and frailty index of old mice. Results are provided on a background of FI of mice of the similar age, aged normally without any treatments (black color). Difference between FI of males receiving 3899 and intact mice is statistically significant (p=0.02).
Frailty Index (FI) was determined for individual mice as described previously (Antoch et al. Aging. 2017; 9: 1-12) using a 26 week-old group as a “young mouse” reference. For each mouse, various parameters were measured. These parameters include non-invasive measurements, including age, body weight, grip strength, diastolic blood pressure, and tail blood flow. Additional blood chemistry measurements were also determined, including white blood cell count, neutrophil count, neutrophil percentage, lymphocyte percentage, monocyte percentage, eosinophil percentage, red blood cell count, hemoglobin, hematocrit, mean corpuscular volume, mean corpuscular hemoglobin, mean corpuscular hemoglobin concentration, platelet count, and mean platelet volume. For each parameter mean value and standard deviation were calculated. Animals differing by more than one standard deviation (STDEV) from mean value in any single parameter were excluded from the reference group. Values for each measured parameter were compared with corresponding values for the reference group and assigned a score. The number of deficits an individual mouse expressed was calculated as a ratio of total number of parameters measured and this value is referred to as the frailty index.
Asenins TA-3899 and TA-4812 were evaluated for their effects on survival and frailty index in a model of chronologic aging mice. Treatment lasted for 20 weeks (weeks 77-97 of age). […] Frailty index of males was measured at week 109.

[4] = system: SAMs; test: SAM viability (CyQuant Direct / resazurin); format: cell-based, mouse; details: 72 hour; presence or absence of IL-4 10 ng/mL
Description: as §1
FIG. 10. Elevated p16(Ink4a) and β-galactosidase is regulated by immunomodulatory agents in macrophages, but not in mesenchymal SCs. Primary cultures of adipose-derived mesenchymal stromal cells (AdMSC) isolated from p16^Ink4a/Luc mice were irradiated (20 Gy) and cultured for 10 days for senescence induction. Mock irradiated cells were used as a proliferating cell control. Response of senescent and proliferating AdMSCs to immunomodulatory agents were compared to that of peritoneal lavage cells elicited by our alginate bead model. A-D) Dose-response curves of LPS (top panels: […]) and Poly(I:C) (bottom panels: C&D) on p16(Ink4a) promoter-dependent luciferase activity (left panels: A&C) and beta-galactosidase activity measured via 4-MUG hydrolysis (right panels: B&D) after 72 hr treatment. […]
FIG. 13. […] SAM viability was determined using the resazurin cell viability assay (Res). […]

[5] = system: human neonatal dermal fibroblasts (NDF); test: Resazurin viability assay, senescent vs proliferating/quiescent human neonatal dermal fibroblasts; format: cell-based; details: Homo sapiens, Fibroblast, 72 h, 72 hour exposure, resazurin
Description: FIG. 2. Compound A1.1 selectively kills senescent human neonatal dermal fibroblasts (NDF) cells in a dose- and time-dependent manner. (FIG. 2A) Normal proliferating and quiescent NDF cells, and the cells made senescent via exposure to genotoxic agents (doxorubicin, bleomycin and gamma-irradiation) were incubated with increasing concentrations of A1.1. At 72 hours post-treatment cell viability was measured via resazurin viability assay. (FIG. 2B) Compound A1.1 selectively kills senescent NDF cells in time-dependent manner discriminating between acute genotoxic stress and senescence. Acutely damaged NDF cells were irradiated with 4 Gy gamma-irradiation 24 hours before A1.1 treatment. Senescent NDF cells were treated with bleomycin or irradiated with 15 Gy and incubated for 14 days to induce senescence before treatment with A1.1. Proliferating acutely damaged and senescent NDF cell were treated with 1.875-30 μM A1.1 and viable cells were measured at 72 hours after treatment. Average and standard deviation are shown.
Normal proliferating and quiescent NDF cells, and the cells made senescent via exposure to genotoxic agents (doxorubicin, bleomycin and gamma-irradiation) were incubated with increasing concentrations of A1.1. At 72 hours post-treatment cell viability was measured via resazurin viability assay.
A1.1 selectively kills senescent human neonatal dermal fibroblasts (NDF) cells in time-dependent manner discriminating between acute genotoxic stress and senescence ([…]). Acutely damaged NDF cells were irradiated with 4 Gy gamma-irradiation 24 hours before A1.1 treatment. Senescent NDF cells were treated with bleomycin or irradiated with 15 Gy and incubated for 14 days to induce senescence before treatment with A1.1.
(§2) Cytotoxicity of A1.1 analogs against bleomycin-induced senescent human NDFs and rat dermal fibroblasts (RDFs). Activity of analogs was assessed from dose-response curves against irradiation- or bleomycin-induced senescent and proliferating cells to calculate IC50s (uM). The fold difference of proliferating versus senescent cell IC50s was used to assess the level of specific anti-senescent activity of the compounds.
(§3) For generation senescent human neonatal dermal fibroblasts (NDFs) and adult rat dermal fibroblasts (RDFs), cells are treated at ˜10 ug/ml bleomycin for 3 days (for bleomycin-induced senescence) or irradiated once at 20 Gy using a gamma irradiator (Cs source), followed by at least 7 day recovery in fresh medium for induction of senescence. Senescent and non-senescent (proliferating) cells for each cell line are plated into 384-w plate, followed by 72 hour exposure to a dose titration of compounds. Viability measurements are estimated using the resazurin viability assay. Using GraphPad Prism 5, the IC50 values are calculated from the non-linear regression of log-transformed compound concentrations versus dose-response normalized to background and non-treated controls.

[6] = system: adult rat dermal fibroblasts (RDF); test: Resazurin viability assay, senescent vs proliferating rat dermal fibroblasts; format: cell-based; details: Rattus norvegicus, Fibroblast, 72 hour exposure, resazurin
Description: as §2, §3

[7] = proliferating NDF, read-out: IC50 NDFprolif
[8] = senescent NDF, bleomycin-induced, read-out: IC50 NDFsen.bleo
[9] = light or radiation study, senescent NDF, irradiation-induced, read-out: IC50 NDFsen.irr
[10] = proliferating RDF, read-out: IC50 RDFprolif
[11] = senescent RDF, bleomycin-induced, read-out: IC50 RDFsen.bleo
[12] = light or radiation study, senescent RDF, irradiation-induced, read-out: IC50 RDFsen.irr

| Compound | Modulation of p16(Ink4a): mLF and mVAT Senescent [2] | Modulation of p16(Ink4a): mLF and mVAT Proliferating [2] | IC50 [5, 7] [µM] | IC50 [5, 8] [µM] | IC50 [5, 9] [µM] | IC50 [6, 10] [µM] | IC50 [6, 11] [µM] | also measured |
| --- | --- | --- | --- | --- | --- | --- | --- | --- |
| CN(C)C(=N)N=C(N)N [Metformin] | – | – | – | – | – | – | – | Modulation of p16(Ink4a): SAMs [1]: decrease |
| CCOC(=O)c1sc(SCc2ccccc2)c2c1CN(c1ccc(OC)cc1)C/C2=N\O [Example A1.11, Ethyl 1-(benzylthio)-7-(hydroxyimino)-5-(4-methoxyphenyl)-4,5,6,7-tetrahydro-thieno[3,4-c]pyridine-3-carboxylate] | no change | no change | – | – | – | – | – | Modulation of p16(Ink4a): SAMs [1]: decrease; survival rates vs control groups ([3]; OT-82: after 6 courses, 111 weeks of age, asenins: treated weeks 77-97, at 112 weeks of age): no statistical significance; FI of males compared to intact animals ([3]; treatment weeks 77-97 of age, measured at week 109): statistically significant decrease |
| NC(=O)c1cnc(NCCc2ccc(O)c(Cl)c2)nc1NCc1ccccc1 [AS1517499, reference compound] | no change | no change | – | – | – | – | – | IL-4-dependent increase in luciferase activity / p16(Ink4a) expression [1]: abrogated; viability of macrophages (CyQuant Direct) [4]: without affecting viability |
| Nc1nc(CCCc2ccccc2)c2c(n1)CC(c1ccccc1)C/C2=N\O (stereo not drawn) [Example A2.3, 2-Amino-7-phenyl-4-(3-phenylpropyl)-7,8-dihydroquinazolin-5(6H)-one oxime] | – | – | > 20 | < 20 | < 20 | > 20 | < 15 | – |
| N#CCNC(=O)c1ccc(-c2ccnc(Nc3ccc(N4CCOCC4)cc3)n2)cc1 [CYT387, momelotinib, reference compound] | no change | no change | – | – | – | – | – | IL-4-dependent increase in luciferase activity / p16(Ink4a) expression [1]: abrogates |
| CCOC(=O)c1sc(Sc2ccccc2)c2c1CC(c1ccc(OC)cc1)C/C2=N\O (stereo not drawn) [Example A1.5, Ethyl 4-(hydroxyimino)-6-(4-methoxyphenyl)-3-(phenylthio)-4,5,6,7-tetrahydro-benzo[c]thiophene-1-carboxylate] | – | – | > 10 | < 10 | < 10 | > 10 | < 5 | IC50 [6, 12]: < 5 µM |
| O=C(Nc1ccccc1)c1cc2c(nc1NCCOc1ccccc1)CC(c1ccccc1)C/C2=N\O (stereo not drawn) [Example A3.1, 5-(Hydroxyimino)-2-((2-phenoxyethyl)amino)-N,7-diphenyl-5,6,7,8-tetrahydroquinoline-3-carboxamide] | – | – | < 5 | < 2.5 | < 2.5 | > 20 | < 2.5 | IC50 [6, 12]: < 2.5 µM |
